Measurements taken from publication PMC8877094, “Antiparasitic Ovalicin Derivatives from Pseudallescheria boydii, a Mutualistic Fungus of French Guiana Termites” (Molecules, 2022).
Like-named read-outs stand apart in the source and are kept apart here.

Legend:
Assay type in all cases: cell-based
[1] = tested on: Plasmodium falciparum FcB1/Colombia strain; test: In vitro growth inhibition of chloroquine-resistant P. falciparum ([3H]-hypoxanthine incorporation); settings: FCB1, Erythrocyte, 48 h
Experimental: The FcB1/Colombian strain of Plasmodium falciparum was maintained in vitro in human erythrocytes in an RPMI 1640 reaction mixture supplemented with 8% (v/v) heat-inactivated human serum at 37 °C under an atmosphere of 3% CO2, 6% O2, and 91% N2. The chloroquine-resistant strain FcB1/Colombia of Plasmodium falciparum was obtained from the National Museum Natural History collection, Paris, France (n°MNHN-CEU-224-PfFCB1). Parasites were maintained in vitro on human A+ erythrocytes in RPMI 1640 medium supplemented by 8% (v/v) heat-inactivated human serum at 37 °C under an atmosphere of 3% CO2, 6% O2, and 91% N2. Human red blood cells and serum were provided by the Etablissement Français du Sang, Ile de France (EFS, Paris, France) under the C-CPSL-UNT approval n°13/EFS/126. In vitro drug susceptibility assays were measured by [^3H]-hypoxanthine incorporation as described previously. Drug solutions were prepared in DMSO at a 10 mM concentration. Compounds were serially diluted 2-fold with 100 μL culture medium in 96-well plates. Asynchronous parasite cultures (100 μL, 1% parasitemia and 1% final hematocrit) were then added to each well and incubated for 24 h at 37 °C prior to the addition of 0.5 μCi of [^3H]-hypoxanthine (GE Healthcare, Tremblay-en-France, France, 1 to 5 Ci·mmol/mL) per well. After a further incubation of 24 h, plates were frozen and thawed. Cell lysates were then collected onto fiberglass filters and counted in a liquid scintillation spectrometer. The growth inhibition for each drug concentration was determined by comparison of the radioactivity incorporated in the treated culture with that in the control culture maintained on the same plate. The concentration causing 50% growth inhibition (IC50) was obtained from the drug concentration–response curve, and the results are expressed as the mean values ± standard deviations determined from several independent experiments.

[2] = tested on: Human umbilical vein endothelial cells (HUVECs); test: Cytotoxic assay on HUVECs (CellTiter-Blue); settings: HUVEC, read-out: HUVECs (IC50 µM)
Experimental: Human umbilical vein endothelial cells (HUVECs) were obtained from Clonetics (Lonza; Walkersville, MD, USA) and cultured according to the supplier’s instructions. Briefly, HUVECs from three to six passages were subcultured to confluence onto 0.2% gelatin-coated tissue culture flasks in endothelial cell growth medium (EGM2) containing growth factors and 2% FCS. All cell lines were maintained at 37 °C in a humidified atmosphere containing 5% CO2. Cell viability was assessed using Promega (Promega France, Charbonnière-les-Bains, France) CellTiter-BlueTM reagent according to the manufacturer’s instructions. Cells were seeded in 96-well plates (5 × 10^3 cells per well) containing […] growth medium. After 24 h of culture, the cells were supplemented with […] of test compound dissolved in DMSO (<0.1% in each preparation). After incubation for 72 h, […] resazurin was added for 2 h before recording fluorescence (λex = 560 nm, λem = 590 nm) using a Victor microtiter plate fluorimeter (PerkinElmer France, Villebon-sur-Yvette, France). IC50 values correspond to the concentration of test compound that elicited a 50% decrease in fluorescence for drug-treated cells relative to untreated cells. Experiments were performed in triplicate.

[3] = tested on: Trypanosoma brucei brucei strain 93 bloodstream forms; test: In vitro inhibition of T. brucei brucei growth (AlamarBlue/resazurin); settings: bloodstream forms strain 93, 72 h incubation + 4 h resazurin, mean ± SD of three independent experiments
Experimental: Bloodstream forms of Trypanosoma brucei brucei strain 93 were cultured in HMI9 medium supplemented with 10% FCS at 37 °C under an atmosphere of 5% CO2. In all experiments, log-phage cell cultures were harvested by centrifugation at 3000× g and immediately used. Drug assays were based on the conversion of a redox-sensitive dye (resazurin) to a fluorescent product by viable cells and were performed according to the manufacturer recommendations (AlamarBlue® Assay, Invitrogen Corporation, Carlsbad, CA, USA). Drug stock solutions were prepared in pure DMSO. […] After a 72 h incubation, resazurin solution was added to each well at with a final concentration of 45 μM. Fluorescence was measured at 530 nm excitation and 590 nm emission wavelengths after a further 4 h incubation. The percentage of inhibition of the parasite growth rate was calculated by comparing the fluorescence of parasites maintained in the presence of drug with that in the absence of drug. DMSO was used as control. […] IC50s were determined from the dose–response curves with drug concentrations ranging from 100 μM to 50 nM. The IC50 value is the mean ± the standard deviation of three independent experiments.

[4] = cell viability, 72 h incubation, CellTiter-Blue, triplicate
[5] = chloroquine-resistant FcB1/Colombia strain, human erythrocytes, 24 h + 24 h with [3H]-hypoxanthine, mean ± SD, read-out: P. falciparum (IC50 µM)

| Compound | IC50 ([1]; read-out: P. falciparum (IC50 µM), chloroquine-resistant FcB1/Colombia strain, human erythrocytes, 24 h + 24 h with [3H]-hypoxanthine, mean ± SD) [µM] | IC50 [2, 4] [µM] | IC50 [1, 5] [µM] | IC50 ([3]; 72 h) [µM] | IC50 ([2]; 72 h) [µM] | IC50 [3] [µM] |
| --- | --- | --- | --- | --- | --- | --- |
| CO[C@@H]1C(=O)CC[C@]2(CO2)[C@@]1(O)[C@@]1(C)O[C@@H]1CC=C(C)C [Compound 1, Ovalicin] | < 20.6 | 13 ± 2 |  |  |  |  |
| CCCCC/C=C\C/C=C\CCCCCCCC(=O)OC[C@@]1(O)CCC(=O)[C@@H](OC)[C@]1(O)[C@@]1(C)O[C@@H]1CC=C(C)C [Compound 2, Ovalicin linoleate] |  | 37 ± 3 | < 20.6 | < 1.1 |  |  |
| CCCCCCCC/C=C\CCCCCCCC(=O)OC[C@@]1(O)CCC(=O)[C@@H](OC)[C@]1(O)[C@@]1(C)O[C@@H]1CC=C(C)C [Compound 3, Ovalicin oleate] |  | 45 ± 2 | > 50 | 4.8 ± 2.7 |  |  |
| CCCCCCCCCCCCCCCCCC(=O)OC[C@@]1(O)CCC(=O)[C@@H](OC)[C@]1(O)[C@@]1(C)O[C@@H]1CC=C(C)C [Compound 4] |  | 70 ± 1 | < 20.6 | 4.1 ± 2.1 |  |  |
| CO[C@@H]1[C@H](OC(=O)/C=C/C=C/C=C/C=C/C(=O)O)CC[C@]2(CO2)[C@H]1[C@@]1(C)O[C@@H]1CC=C(C)C [Fumagillin, reference compound] |  |  |  |  | 0.006 ± 0.002 |  |
| N=C(N)c1ccc(OCCCCCOc2ccc(C(=N)N)cc2)cc1 [Pentamidine, reference compound] |  |  |  |  |  | 0.011 ± 0.0017 |
